The record followed here is publication PMC10113987, “A tool for nuclear imaging of the SARS-CoV-2 entry receptor: molecular model and preclinical development of ACE2-selective radiopeptides” (EJNMMI Research, 2023).

Positions of bridges follow the written chain, without caps; N, C: chain ends. Residues, ends and D or L forms follow the SMILES beside them. *: point of attachment. DOTA = O=C(O)CN1CCN(CC(=O)O)CCN(CC(=O)*)CCN(CC(=O)O)CC1; NODAGA = O=C(O)CN1CCN(CC(=O)O)CCN(C(CCC(=O)*)C(=O)O)CC1; Ahx = NCCCCCC(=O)O

Data set [1] in a line: Blood plasma protein binding, mouse plasma (ultrafiltration). It is filed as in vitro ADME. Particulars: mouse, plasma, 30 min, 37 °C, read-out: Fraction bound to blood plasma proteins (converted). The procedure: (§1) The radiopeptides (0.3 MBq; 15 pmol) were incubated in human or murine blood plasma (150 μL) for 30 min at 37 °C followed by cooling on ice, addition of ice-cold PBS (150 μL) and transfer of the samples to amicon filter devices (Amicon Ultra, 0.5 mL, Merck Millipore; cutoff 10 kDa). The filter ensured the retention of the radiopeptides bound to mouse plasma proteins or human plasma proteins during filtration (14,000 rcf, 30 min at 4 °C). Afterward, the filter inserts were inverted and centrifuged again (200 rcf, 3 min) to recover the protein-bound fraction of the radiopeptides. The activities of the free radiopeptides in the filtrate, as well as in the filter insert and the plasma protein-bound radiopeptides (Abound), were counted for activity separately in a γ-counter. The total activity (Atotal) was determined as the sum of the activities in the filtrate, filter insert, and protein-bound fractions. The percentage of radiopeptide bound to mouse serum albumin (MSA) and human serum albumin (HSA) was calculated as Abound/Atotal*100. The results were presented as average ± SD of three independent experiments (Additional file 1).
(§2) Methods: The detailed methods are reported in the main article. Control experiments were performed by incubation of the respective radiopeptides in phosphate-buffered saline (PBS) instead of blood plasma, followed by ultracentrifugation using Amicon filters.

Data set [2] deals with mouse blood plasma proteins. The data set is described as above. The class given is in vitro ADME. Particulars: 30 min, 37 °C. The protocol:
as §1, §2

Data set [3] in a line: Blood plasma protein binding, human plasma (ultrafiltration). It is filed as in vitro ADME. Particulars: human, plasma, 30 min, 37 °C, read-out: Fraction bound to blood plasma proteins. The procedure: as §1, §2
For data set [4], the system named is human blood plasma proteins. The data set is described as above. It is filed as in vitro ADME. Particulars: 30 min, 37 °C. The procedure:
as §1, §2

In data set [5] the target is T1, ACE2 (Homo sapiens, UniProt Q9BYF1).
T1 construct: host or cells: HEK-293
T1 sequence (Q9BYF1 18-805): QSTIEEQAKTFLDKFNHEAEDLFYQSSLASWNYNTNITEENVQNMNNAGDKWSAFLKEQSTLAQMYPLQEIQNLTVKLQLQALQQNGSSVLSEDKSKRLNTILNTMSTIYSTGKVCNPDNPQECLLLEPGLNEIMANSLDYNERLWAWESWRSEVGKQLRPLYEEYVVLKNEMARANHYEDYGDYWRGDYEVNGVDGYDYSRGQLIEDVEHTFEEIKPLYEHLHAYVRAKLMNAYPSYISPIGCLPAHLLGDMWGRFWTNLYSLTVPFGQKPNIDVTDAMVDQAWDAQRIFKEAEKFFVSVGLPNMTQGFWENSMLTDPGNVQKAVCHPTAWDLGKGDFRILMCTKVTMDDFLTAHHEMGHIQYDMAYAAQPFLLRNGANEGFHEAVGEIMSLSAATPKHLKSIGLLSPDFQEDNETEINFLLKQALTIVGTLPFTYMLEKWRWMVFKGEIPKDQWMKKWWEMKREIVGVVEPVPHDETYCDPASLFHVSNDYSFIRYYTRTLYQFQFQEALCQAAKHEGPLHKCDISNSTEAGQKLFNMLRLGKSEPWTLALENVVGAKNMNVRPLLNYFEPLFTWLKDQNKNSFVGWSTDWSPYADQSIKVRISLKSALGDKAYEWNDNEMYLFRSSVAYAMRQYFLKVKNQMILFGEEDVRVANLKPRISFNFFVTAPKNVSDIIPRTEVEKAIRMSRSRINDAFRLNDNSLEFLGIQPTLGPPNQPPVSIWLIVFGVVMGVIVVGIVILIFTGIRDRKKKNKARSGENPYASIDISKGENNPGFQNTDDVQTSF
The experiment in a line: ACE2-binding affinity (saturation binding on HEK-ACE2 cells). Particulars: on ice, 1 h. The protocol: In order to determine the KD values of the DX600-based radiopeptides and [^67Ga]Ga-DOTA-BPP9a, HEK-ACE2 and HEK-ACE cells were seeded in 48-well-plates allowing adhesion and growth overnight. The cell samples were incubated with increasing concentrations (1‒2000 nM) of the radiopeptides (5 MBq/nmol) on ice. Some of the cell samples were co-incubated with an excess of cyclo-DX600 or lisinopril (20 µM, 10 nmol) to block ACE2 or ACE, respectively, enabling the determination of non-specific binding (Additional file 1). After 1 h incubation, the cells were rinsed with PBS and lysed with NaOH (1 M, 600 µL) to count the activity in a γ-counter. The KD values were determined by plotting specific binding (total binding minus unspecific binding) against the molar concentration of the added radiopeptide. A nonlinear regression analysis was performed using GraphPad Prism software (version 8.3.1).

Data set [6] relates to HEK-ACE2 cells. The experiment in a line: Cell uptake and internalization in HEK-ACE2 cells. It is filed as cell-based, human. The procedure: HEK-293 cells transfected with ACE2 or ACE, referred to as HEK-ACE2 and HEK-ACE, respectively, were obtained from Innoprot (Innovative Technologies in Biological Systems S.L. Bizkaia, Spain). The cells were cultured in Dulbecco’s Modified Eagle Medium (DMEM) supplemented with nonessential amino acids, fetal calf serum and antibiotics. Hygromycin B was used to maintain the expression of ACE2 and ACE, respectively. The HEK cells were cultured under standard conditions at 37 °C and 5% CO2 and subcultured using PBS/EDTA and trypsin.
The uptake and internalization of [^67Ga]Ga-DOTA-DX600, [^67Ga]Ga-NODAGA-DX600, [^67Ga]Ga-HBED-CC-DX600 and [^67Ga]Ga-DOTA-BPP9a were determined using HEK-ACE2 and HEK-ACE cells. The cells were seeded in poly-D-lysine-coated 12-well plates allowing cell adhesion and growth overnight. After rinsing the cells with PBS, they were incubated with the respective radiopeptide (25 µL, 1.9 pmol, 38 kBq). In some cell samples, the radiopeptides were co-incubated with excess of cyclo-DX600 (2 µM) or lisinopril (4 µM) to block ACE2 or ACE, respectively. After incubation of the cells for 1 h or 3 h, they were rinsed with PBS or acidic stripping buffer (glycine buffer with NaCl 0.9%, pH 2.8) to determine the total uptake and internalization of the radiopeptides, respectively. Cell samples were lysed using NaOH (1 M, 1 mL) before counting the activity in a γ-counter. The results were expressed as a percentage of total added activity and normalized to an average content of ~ 0.3 mg protein per well.
Methods: The methods for cell uptake studies are reported in the main article. The cyclo-DX600 (ACE2 inhibitor) and lisinopril (ACE inhibitor) were applied at a final concentration of 2 µM and 4 µM, respectively.

Consider `CC[C@H](C)[C@H](NC(=O)[C@H](CCC(N)=O)NC(=O)[C@@H]1CCCN1C(=O)[C@H](CCCNC(=N)N)NC(=O)[C@@H]1CCCN1C(=O)[C@H](Cc1c[nH]c2ccccc12)NC(=O)[C@H](CCC(=O)O)NC(=O)CCCCCNC(=O)CCCCCNC(=O)CN1CCN(CC(=O)O)CCN(CC(=O)O)CCN(CC(=O)O)CC1)C(=O)N1CCC[C@H]1C(=O)N1CCC[C@H]1C(=O)O` [[^67Ga]Ga-DOTA-BPP9a, metal not drawn] ({DOTA-Ahx-Ahx}-EWPRPQIPP-OH), for which the fraction unbound in data set [1] is 0.47; in data set [3] it was 0.5. Further, the “Fraction bound to blood plasma proteins” value in data set [2] is recorded as ~ 53%; in data set [4] it was ~ 49%.

Turning to `CC(=O)N[C@@H](CCCCNC(=O)CN1CCN(CC(=O)O)CCN(CC(=O)O)CCN(CC(=O)O)CC1)C(=O)NCC(=O)N[C@@H](CC(=O)O)C(=O)N[C@@H](Cc1ccc(O)cc1)C(=O)N[C@@H](CO)C(=O)N[C@@H](Cc1c[nH]cn1)C(=O)N[C@H]1CSSC[C@@H](C(=O)N[C@H](C(=O)N[C@@H](Cc2ccc(O)cc2)C(=O)N2CCC[C@H]2C(=O)N[C@@H](CC(=O)O)C(=O)N2CCC[C@H]2C(=O)N[C@@H](CCC(=O)O)C(=O)NCC(=O)NCC(=O)NCC(N)=O)[C@@H](C)O)NC(=O)[C@H](CCCCN)NC(=O)[C@H](Cc2c[nH]c3ccccc23)NC(=O)[C@H](Cc2c[nH]c3ccccc23)NC(=O)[C@@H]2CCCN2C(=O)[C@H](Cc2ccc(O)cc2)NC(=O)[C@H](Cc2ccc(O)cc2)NC(=O)[C@H](CCCNC(=N)N)NC(=O)[C@H](CC(C)C)NC(=O)[C@@H]2CCCN2C(=O)[C@H](CO)NC1=O` [[^67Ga]Ga-DOTA-DX600, metal not drawn] (Ac-K(DOTA)GDYSHCSPLRYYPWWKCTYPDPEGGG-NH2; disulfide 7-18), binding in data set [5] was put at a Kd of 98 ± 10 nM.

Turning to `CC(=O)N[C@@H](CCCCNC(=O)CCC(C(=O)O)N1CCN(CC(=O)O)CCN(CC(=O)O)CC1)C(=O)NCC(=O)N[C@@H](CC(=O)O)C(=O)N[C@@H](Cc1ccc(O)cc1)C(=O)N[C@@H](CO)C(=O)N[C@@H](Cc1c[nH]cn1)C(=O)N[C@H]1CSSC[C@@H](C(=O)N[C@H](C(=O)N[C@@H](Cc2ccc(O)cc2)C(=O)N2CCC[C@H]2C(=O)N[C@@H](CC(=O)O)C(=O)N2CCC[C@H]2C(=O)N[C@@H](CCC(=O)O)C(=O)NCC(=O)NCC(=O)NCC(N)=O)[C@@H](C)O)NC(=O)[C@H](CCCCN)NC(=O)[C@H](Cc2c[nH]c3ccccc23)NC(=O)[C@H](Cc2c[nH]c3ccccc23)NC(=O)[C@@H]2CCCN2C(=O)[C@H](Cc2ccc(O)cc2)NC(=O)[C@H](Cc2ccc(O)cc2)NC(=O)[C@H](CCCNC(=N)N)NC(=O)[C@H](CC(C)C)NC(=O)[C@@H]2CCCN2C(=O)[C@H](CO)NC1=O` (some centres unmarked) [[^67Ga]Ga-NODAGA-DX600, metal not drawn] (Ac-K(NODAGA)GDYSHCSPLRYYPWWKCTYPDPEGGG-NH2; disulfide 7-18), the “Internalized fraction in HEK-ACE2 cells” value in data set [6] (3 h incubation, acidic stripping buffer) was 8.2 ± 0.3%. For the same compound, the “Uptake in HEK-ACE2 cells” value in data set [6] (3 h incubation, percentage of total added activity) is reported as 40 ± 3%. For the same compound, the “Uptake in HEK-ACE2 cells in the presence of excess cyclo-DX600 (unspecifically bound)” value in data set [6] (co-incubation with cyclo-DX600 2 µM) was 3.1 ± 1.1%.

As usually defined, the Kd is the equilibrium constant for the complex coming apart.
